Each block holds one molecule with its values, some of them ahead of it. Where a SMILES comes first, the peptide text is derived from it. The star is where a group is joined. Cbz = O=C(OCc1ccccc1)*
Key:
[1] = Chemical stability of HNE(alkyne); type: physicochemical; settings: air
Method: (iv) Isolate the pure product via flash chromatography using hexanes: Et20 (4:1 v/v) as eluent (Rf=0.5 in hexanes: Et2O 4:1). […] The purified material should be characterized promptly and during this time may be stored under Ar at room temperature. For long-term storage, HNE(alkyne) should be stored as one-shot aliquots in DMSO at −80° C. and must be used immediately once thawed.

PTEN = target: T1, PTEN (Homo sapiens, UniProt P60484); assay: InPAkt FRET biosensor assay of PIP3 after PTEN-targeted T-REX; type: cell-based
T1 construct: host or cells: HEK-293
T1 sequence (P60484 whole entry): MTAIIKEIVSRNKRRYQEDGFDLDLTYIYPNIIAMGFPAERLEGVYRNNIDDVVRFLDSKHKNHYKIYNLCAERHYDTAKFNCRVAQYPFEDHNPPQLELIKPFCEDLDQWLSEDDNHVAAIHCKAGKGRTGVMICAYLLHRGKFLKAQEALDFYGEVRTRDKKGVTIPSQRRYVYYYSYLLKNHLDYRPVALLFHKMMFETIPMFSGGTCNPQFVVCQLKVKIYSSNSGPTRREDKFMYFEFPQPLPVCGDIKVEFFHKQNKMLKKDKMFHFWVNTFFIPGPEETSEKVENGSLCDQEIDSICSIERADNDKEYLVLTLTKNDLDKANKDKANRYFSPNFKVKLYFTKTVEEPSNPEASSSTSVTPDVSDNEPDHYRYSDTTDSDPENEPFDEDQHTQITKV
Method: (ii) Transfect each plate with 1000 ng of Halo-PTEN and 1000 ng of InPAkt reporter plasmid. Transfect with TransIT-2020 following the manufacturer's protocol.
(iv) Treatment of cells with T-REX™ delivery photocaged precursor, photo-uncaging and cell fixing. Treat the cells with photocaged precursor as described in Section 2, Step 39A. The amounts of reagents used should be scaled up for 4×35 mm adherent culture dish.
(v) Irradiate the cells with UV light only for 3 min. After shining light on the sample. Incubate the plates at 37° C. for 10 hours. Longer irradiation time will result in photobleaching of the FRET reporter proteins.
(vi) Imaging and data analysis. […] Blue laser (408 nm) is used for excitation. Record the signals in cyan channel (463-498 nm) and yellow channel (525-620 nm).
(vii) Analyse the images using ImageJ software (NIH). To do this, determine the average cyan and yellow fluorescence intensity for each cell by drawing a free hand circle around the image. Repeat this for each condition such that 150-200 cells were analyzed each time from multiple different frames. Calculate the ratio of mean yellow to mean cyan fluorescence intensity for each condition, then plot these values and analyse the results using prism. To get reliable results, it is important to collect images from at least 150 individual cells per condition.

γ-H2AX [2] = assay: T-REX in zebrafish embryos, whole-mount γ-H2AX immunofluorescence; type: in vivo, zebrafish (Danio rerio); settings: 3 h post light exposure
Method: (§1) Fertilized eggs at the 1-2 cell stage from casper zebrafish were injected with mRNA (1.6 mg/ml) into the yolk sack. Immediately after injection, embryos were pooled, and separated into two petri dishes (10 cm) filled with 30 mL 10% Hank's salt solution with methylene blue and penicillin (100 U/mL)/streptomycin (100 μg/ml). To one set was added the HaloTag-targetable photocaged precursor to HNE (Ht-PreHNE, hereafter) (<15 μM) and the other DMSO in the dark. Embryos were maintained at 28° C. in the dark for 28 h then they were washed in 10% Hank's solution with no methylene blue/antibiotic (3 times for 30 min each). Embryos were moved to 6-well plates. Half of the embryos (Ht-preHNE-treated or -untreated) were irradiated with UV light (5 min), and the other half of each set was not irradiated. Embryos were left for 8 h at which point they were euthanized, washed with cold 1×DPBS and dechorionated (and deyolked if protein analysis was to be undertaken).
DDR preconditioning occurs in zebrafish embryos. […] Subsequently, the fish were fixed and γ-H2AX levels were measured using whole-mount immunofluorescence.

[3] = test system: Ube2V2 ubiquitination and cellular Ub pools; assay: Ubiquitination analysis by IP, K63-TUBE pulldown and western blot in HEK293T cells; type: cell-based, human; settings: for amount of ubiquitinated-Ube2V2 formed upon targeted-HNEylation: proteasome inhibitor treatment with T-REX
Method: Cells were lysed in 1×RIPA buffer containing in final concentrations 1× Protease inhibitor, 1 mM sodium orthovanadate and 1 mM PMSF, by rapid freeze-thaw (×3). Cell debris was removed and the supernatant was collected after centrifugation at 18,000×g for 20 min at 4° C. Protein concentration was determined using Bradford assay. 30-50 μg of total lysates were subjected to SDS-PAGE and the gel was transferred onto a PVDF membrane at 100 V for 1 h at 4° C. or at 40 V overnight at 4° C. Membrane was blocked with 10% milk and probed with various antibodies at the indicated dilutions (Table 4, above).
HEK 293T cells were seeded in 2×60 cm^2 plates. After the cells reached 60% confluence (˜18-24 h), the old media was replaced with 8 mL of fresh complete media. Cells were transfected with 7.5 μg of the designated Halo clone and 30 μL PEI (1 mg/mL) in 600 μL in Opti-MEM media for 24-36 h after which the cells were treated with 25 μM Ht-PreHNE for 2.5 h. Rinsing and light shining protocol were as described above. Cells were harvested, pooled, washed twice with chilled 1×DPBS and flash frozen. Cell lysis was performed in 100-200 μL per 1.5×10^6 cells of either: lysis buffer [containing in final concentrations 50 mM HEPES (pH 7.6), 150 mM NaCl, 1% Nonidet P-40 and 1× Roche cOmplete, mini, EDTA-free protease inhibitor cocktail] for Flag pull down; or RIPA buffer [containing in final concentrations 50 mM HEPES (pH 7.6), 150 mM NaCl, 1% Nonidet P-40, 0.1% SDS, 0.25% sodium deoxycholate, and 1× Roche cOmplete, mini, EDTA-free protease inhibitor cocktail] for HA pull down, followed by rapid freeze-thaw cycles (×3). Lysate was clarified by centrifugation at 18,000×g for 10 min at 4° C. Total protein concentration was determined using Bradford assay with BSA as standard. The lysate was subsequently diluted to 2 mg/mL with binding buffer containing in final concentrations 50 mM HEPES (pH 7.6), 150 mM NaCl, 1× Roche cOmplete, mini, EDTA-free protease inhibitor cocktail, and 0.1% Tween-20. This diluted lysate was subjected to either 50-100 μL bed volume of ANTI-FLAG® M2 affinity gel (A2220, Sigma) or monoclonal anti-HA-agarose (clone HA-7, A2095, Sigma) that had been pre-equilibrated with the binding buffer above. The sample was incubated with beads for 2-3 h at 4° C. by end-over-end rotation after which time the supernatant was removed post-centrifugation at 1000×g (anti-FLAG pull down) or 5000×g (anti-HA pull down) for 3 min. The beads were washed three times at 4° C. with 500 μL wash buffer containing in final concentrations 50 mM HEPES (pH 7.6), 150 mM NaCl, 1× Roche cOmplete, mini, EDTA-free protease inhibitor cocktail, and 0.1% Tween-20, using end-over-end rotation over 10 min during each wash. The bound protein was eluted by either incubating with 0.15 mg/mL 3× flag peptide for 2 h at 4° C. (anti-Flag pull down) or by boiling the beads at 98° C. for 10 min with 30 μL of 3× Laemmeli dye containing 6% βME (anti-HA pull down). The sample was subjected to SDS-PAGE and transferred to a PVDF membrane for western blot analysis described above.
Cells were grown and transfected as described above. After T-REX™ delivery, cells were harvested and lysed in 100-200 μL (˜1.5×10^6 cells) of lysis buffer [containing in final concentrations 50 mM HEPES (pH 7.6), 300 nM Biotin K63-TUBE, 150 mM NaCl, 5 mM EDTA, 3 mM 1,10-phenanthroline, 5 mM NEM, 20 μM PR-619, 1% Nonidet P-40 and 1× Roche cOmplete, mini, EDTA-free protease inhibitor cocktail] according to manufactures' manual (Biotin K63 TUBE, Lifesensors). Lysate was clarified by centrifugation at 18,000×g for 10 min at 4° C. Total protein concentration was determined using Bradford assay using BSA as standard. […]

γ-H2AX [4] = assay: γ-H2AX immunofluorescence in HEK293T cells; type: cell-based, human
Method: Cells were grown to 70% confluence in 35 mm glass-bottomed dishes and transfected with HaloTagged plasmids. T-REX™ delivery was performed as mentioned above. […] The fixative was aspirated and the cells washed three times with 1×DPBS with 5-min incubation at room temperature. Blocking and permeabilization was performed in one-step by incubation at 37° C. for 1 h in 1×DPBS containing 3% BSA and 0.2% Triton X-100. Cells were subsequently incubated with primary antibody (1:300, Table 4) in incubation buffer (1% BSA, 0.02% Triton X-100 in 1×DPBS) for 2 h at room temperature. Cells were rinsed 3 times with 1×DPBS with 5 min incubation for each wash and subsequently incubated in dark for 1 h at room temperature with corresponding second antibody (1:1000, Table 4) in incubation buffer. Cells were rinsed 3 times with 1×DPBS with 5 min incubation for each rinse. DAPI (Sigma) was freshly prepared in 1×DPBS from 2 mg/mL wt./v stock solution in water and added to the wells at the final concentration of 0.2 μg/mL. The samples were incubated in dark for 1 min and washed once with 1×DPBS and stored at 4° C. in dark till images were taken using a Zeiss LSM 710 meta confocal fluorescence microscope. Image analysis was performed using Image-J (NIH).

zebrafish embryos = assay: Zebrafish embryo morphology and survival, stereomicroscope; type: in vivo, zebrafish (Danio rerio)
Excerpt: Fish were then dechorionated, deyolked, lysed and HNEylated proteins were captured by Click coupling with biotin-azide and subsequent streptavidin pulldown (see workflow in FIG. 4A, Clicking with biotin-azide). HNEylation of Ube2V2 in fish also led to polyubiquitination of Ube2V2, indicating mechanistic conservation between fish and humans, and functional relevance of this electrophile regulatory pathway in vivo. Also see FIG. 14C. […] After 36-h fish were dechorionated and imaged using a stereomicroscope. Scale bars, 545 μm.
as §1, with “Embryos were left for 8 h at which point they were euthanized, washed with cold 1×DPBS and dechorionated (and deyolked if protein analysis was to be undertaken).” left out

Ube2N = assay: Lentiviral shRNA knockdown of Ube2N, western blot; type: cell-based, human
Method: HEK293T packaging cells were seeded and grown overnight in antibiotic free media in 6 well plates. At 80% confluence, each well was transfected with packaging plasmid (pCMV-R8.74psPAX2, 500 ng), envelope plasmid (pCMV-VSV-G, 50 ng) and pLKO vector (500 ng) using TransIT.LT1 as per the manufacturer's protocol. After 18 h, media were removed and replaced with 20% serum containing media. After 24 h, media containing viruses were collected, spun down and passed through a 0.6 micron filter and stored at −80° C. or used directly.
Cells in log phase were treated with 0.6 ml of virus supernatant (from above) in 8 μg/ml polybrene in a total of 6 ml of media in a 6-well plate. After 24 h, media were removed and replaced with media containing 2 μg/ml puromycin (which was completely toxic to all lines used in this study). Cells were cultured until the plate was confluent, then cells were split and moved to a 10 cm dish in 2 μg/ml puromycin containing media and grown again until reaching confluence. At this, the line was considered to be “selected”, and target gene expression was analyzed by western blot and compared to shRNA controls. […]
Cells were lysed in 1×RIPA buffer containing in final concentrations 1× Protease inhibitor, 1 mM sodium orthovanadate and 1 mM PMSF, by rapid freeze-thaw (×3). […] Protein concentration was determined using Bradford assay. […]

Molecule: C#CCCCC(O)C=CC=O (stereo not drawn) [HNE(alkyne), 4-hydroxynonenal alkyne]
stability [1]: highly unstable to air-oxidation and polymerization

FRET signal (PTEN; T-REX on Halo-PTEN vs light alone): selectively enhances FRET signal
Molecule: C#CCCCC(O)/C=C/COc1c(CC(=O)NCCOCCOCCCCCCCl)ccc2c1C(=O)c1ccccc1C2=O (stereo not drawn) [Ht-PreHNE]
YFP:CFP emission ratio (PTEN; precursor treatment alone, no light): did not perturb the emission ratio significantly
γ-H2AX levels in zebrafish embryos (γ-H2AX [2]): regulates γ-H2AX levels in zebrafish

Molecule: CC(C)C[C@@H](C=O)NC(=O)[C@H](CC(C)C)NC(=O)[C@H](CC(C)C)NC(=O)OCc1ccccc1 [MG132] (Cbz-Leu-Leu-Leu-aldehyde)
pan cellular poly-Ub-pools ([3]; HEK293T): elevated pan-Ub-pools
amount of ubiquitinated-Ube2V2 formed upon targeted-HNEylation [3]: had no effect on the amount of ubiquitinated-Ube2V2

Molecule: CO[C@@]12[C@H](COC(N)=O)C3=C(C(=O)C(C)=C(N)C3=O)N1C[C@@H]1N[C@@H]12 [Mitomycin-C]
γ-H2AX in Ube2V2-C69S-expressing and Ube2N-deficient cells (γ-H2AX [4]): still upregulated γ-H2AX
γ-H2AX upregulation (γ-H2AX [4]; positive control): 3-4 fold
embryo deformity / death (zebrafish embryos): severely deformed or died during treatment
γ-H2AX levels in zebrafish embryos (γ-H2AX [2]): high level of γ-H2AX-expression relative to untreated fish

Molecule: N#CSc1cc(SC#N)c(N)nc1N [PR-619]
K63-linked total cellular Ub pools ([3]; HEK293T): promoted elevation of K63-ubiquitination
ubiquitination of Ube2V2 wt vs C69S ([3]; HEK293T): promote ubiquitination of Ube2V2(C69S) as efficiently as wt-Ube2V2

Molecule: CC(C)C[C@H](NC(=O)[C@H](Cc1ccccc1)NC(=O)c1cnccn1)B(O)O [bortezomib]
pan cellular poly-Ub-pools ([3]; HEK293T): elevated pan-Ub-pools
amount of ubiquitinated-Ube2V2 formed upon targeted-HNEylation [3]: had no effect on the amount of ubiquitinated-Ube2V2

Molecule: #18: shRNA targeting Ube2N in pLKO1 vector (SEQ ID NO: 65) (CCGGGCTGAGGCATTTGTGAGTCTTCTCGAGAAGACTCACAAATGCCTCAGCTTTTT)
Ube2N knockdown strength (Ube2N): weaker knockdown

Source: patent US11506670B2, “Method of genome-wide direct identification of electrophile-sensing targets” (Cornell University, priority 2018, dated 2022)
